Structures can show the parent of a compound that is named as a salt.
How the values were obtained:
[1] = 24-hour equilibrium solubility of DMF in water; type: physicochemical; conditions: thermodynamic from solid
Description: Samples were then filtrated at the measuring temperatures through a 0.2 μm filter unit, and the concentrations of the filtrate were determined using HPLC. The solids in equilibrium were confirmed, by FT-Raman technique, to be the same form as the starting material.

[2] = MMF exposure in plasma and tissues after DMF PO or IV once daily for 5 days (LC-MS/MS); type: in vivo, Sprague-Dawley rats
Description: On Day 5 of the study 3 time points were evaluated: 10 minutes, 2 hours, and 6 hours after dosing, as illustrated in the timeline. At each time point, 5 animals from each group were sacrificed. At the 2 and 6 hour time points, the tissue samples from groups E, F, I, and J from each animal were split, with half of the tissue being processed for MMF exposure, and half processed for qRT-PCR. Note vehicle groups (C, D, G, and H) were not processed for MMF measurement and only used for qRT-PCR.
At 10 minutes, 2 and 6 hours, plasma and tissues (forebrain, cerebellum, jejunum, kidney and spleen) from cohorts of animals (Groups A, B, E, F, I, J) were collected to measure the concentration of MMF in the sample. MMF was quantitated using a non-GLP, but validated LC/MS/MS assay. Statistical comparisons were performed using the non-parametric Mann-Whitney U test.
As mentioned previously, Sprague-Dawley rats were sacrificed and terminal plasma and tissue samples were collected 10 minutes, 2 and 6 hours after dosing and MMF exposure in plasma, brain, cerebellum, jejunum and kidney was determined as follows. Tissues were snap frozen on dry ice after dissection. Immediately prior to blood collection, 4 μL of 250 mg/mL stock mixture of sodium fluoride (NaF) in water was added to each 100 μL of blood collected in a lithium heparin tube. The stock NaF mixture was prepared on the day of use and kept as a homogenous suspension through continuous stirring on a stir plate. Whole blood was added to the tube, and then samples were inverted several times and stored on wet ice (2° C. to 8° C.). All samples were centrifuged within 30 minutes of collection at 4° C. for 15 minutes at 1500×g (4200 RPM). Plasma was then transferred into pre-chilled tubes, immediately frozen on dry ice and maintained frozen (≤−80° C.) until analysis.
Aliquots (50 μL) of either plasma or tissue homogenate samples were extracted by protein precipitation with acetonitrile containing methylethyl fumarate or −4C13-MMF as the internal standard. For tissue samples, aliquots of homogenization solution (‘blank’ plasma with 12.5 mg/mL of NaF) were added to the tissue samples. The tissue samples were homogenized at 6.5 m/s for 60 seconds on a Fast Prep Tissue Homogenizer prior to protein precipitation. Concentrations of MMF in plasma, forebrain, cerebellum, jejunum, spleen and kidney samples were determined using qualified LC-MS/MS assays in the respective matrices. Data collection and integration was accomplished using an API 5500 triple quadrupole mass spectrometer with a turbo ion spray interface (AB Sciex, Foster City, Calif.), and Analyst software (version 1.6.1). The peak area ratios of MMF relative to its internal standard were used to construct a standard curve using a quadratic regression with a 1/x^2 weighting. The lower limit of quantitation (LLOQ) was 10 ng/mL for all four assays. The performances of the assays were monitored by the precision and accuracy of the standards and quality control samples.

[3] = Solubility of DMF in HPbCD, Captisol, saline and D5W at ambient temperature; type: physicochemical; conditions: thermodynamic from solid
Description: Solubility of DMF in these media was determined at ambient temperature by preparing a saturated solution.

Nrf2 target genes = assay: qRT-PCR of Nrf2 target genes, statements over all tested genes; type: in vivo, C57BL/6 mice
Description: For RNA preparation, frozen tissues were placed in 2 mL RNAse-free 96-well blocks with 1.5 mL QIAzol Lysis Reagent (QIAgen) and a 3.2 mm stainless steel bead (BioSpec Products, Bartlesville, Okla.). Tissues were disrupted for four cycles of 45 seconds in a Mini-Beadbeater (Biospec Products). RNA was extracted with chloroform and the aqueous phase was mixed with an equal volume of 70% ethanol. Extracted RNA was applied to RNeasy 96 plates and purified by the spin method according to the manufacturer's protocol (RNeasy 96 Universal Tissue Protocol, QIAgen, Hilden Germany).
Samples were reverse-transcribed into cDNA according to the manufacturer protocols using the High Capacity cDNA Reverse Transcription Kit (Life Technologies, Carlsbad, Calif.) and analyzed by qRT-PCR. Mouse target gene primers and 6-FAM™ dye-labeled TaqMan® MGB™ probes (Life Technologies) were used. Reactions containing 100 ng of cDNA, 900 nM of each primer, and 250 nM TaqMan probes were cycled on a QuantStudio 12 k-flex system (Life Technologies) once for 10 minutes at 95° C., followed by 40 cycles of 95° C. for 10 seconds and 60° C. for 1 minute. All samples were measured in triplicate with Gapdh as a normalizing gene. Taqman primer/probe sets from Life Technologies included: Akr1b8 (Mm00484314_m1); Gapdh (Mm03302249_g1); Gclc (Mm00802655_m1); Hmox1 (Mm00516005_m1); Nqo1 (Mm01253561_m1); and Osgin1 (Mm00660947_m1). Comparative CT method was used to calculate fold changes and samples were normalized relative to time-matched vehicle control.
At the 10-minute time point, 4 animals from each group were sacrificed, with plasma and tissues (brain, jejunum and kidney) collected to determine MMF exposure. Two hours after dosing, the remaining 4 animals were sacrificed, and plasma and tissues were collected. Tissue samples from the 2-hour time point were divided, with half of each sample used for MMF exposure analysis, and half for RNA extraction and qRT-PCR to evaluate the expression of Nrf2 target genes.
Ten minutes after dosing, 4 animals from each group were sacrificed, and plasma and tissues (brain, kidney, jejunum and spleen) were collected to quantify MMF exposure levels, as well as whole blood to perform CBC. Two hours post-dose, another 4 animals from each group were sacrificed, and plasma, whole blood, and tissues were collected. Tissue samples from the 2-hour time point were split, with half of each sample used for MMF exposure analysis, and half for RNA extraction/qRT-PCR to evaluate the expression of Nrf2 target genes. Six hours after dosing, the last 4 animals from each group were sacrificed, and whole blood and tissues were collected.
A CBC with differential panel was performed at 10 minutes post-last dose via facial vein bleeding, and at 2 hours after the last dose, pharmacodynamic Nrf2 transcriptional responses were analyzed in tissues from the same animals. Histopathology was also performed on regions of the tail in a pilot toxicology study.

[4] = Study 3, DMF IV 30 mg/kg once daily x5, 2 hours after dosing

SMILES: COC(=O)/C=C/C(=O)OC [DMF, dimethyl fumarate]
- solubility at 24 h ([1]; 20 ° C., 24 hours): 2700 µg/mL
- solubility at 24 h ([1]; 35 ° C., 24 hours): 3500 µg/mL
- solubility at 24 h ([1]; 50 ° C., 24 hours): 5500 µg/mL
- solubility at 24 h ([1]; ambient temperature): 2700 µg/mL
- MMF level in any tissue ([2]; 6 hours after IV or PO DMF dosing): no detectable MMF in any tissue
- MMF level in forebrain or cerebellum ([2]; 6 hours after dosing, PO or IV): undetectable
- MMF level in any tissue ([2]; DMF IV 30 mg/kg, 2 hours): no MMF was detectable in any tissue
- MMF level in brain ([2]; DMF IV 30 mg/kg, 2 hours): below the level of quantitation
- MMF level in plasma ([2]; DMF IV 30 mg/kg, 6 hours): not detectable
- MMF levels in kidney, jejunum and spleen ([2]; DMF PO 100 mg/kg, 2 hours): markedly decreased, but detectable
- MMF levels in jejunum, kidney and spleen, PO versus IV ([2]; PO 100 mg/kg vs IV 30 mg/kg, 10 minutes): these differences were not significant
- solubility at 24 h ([3]; aqueous with cosolvent or surfactant or cyclodextrin, 40% Captisol, pH 4.42): 7900 µg/mL
- solubility at 24 h ([3]; pH 3.9, aqueous with cosolvent or surfactant or cyclodextrin, 40% HPbCD, pH 3.90): 15100 µg/mL
- solubility at 24 h ([3]; pH 4.3, aqueous with cosolvent or surfactant or cyclodextrin, 5% HPbCD, pH 4.30): 4030 µg/mL
- solubility at 24 h ([3]; pH 4.8, aqueous with cosolvent or surfactant or cyclodextrin, 5% Captisol, pH 4.80): 3180 µg/mL
- solubility at 24 h ([3]; saline or isotonic, D5W (5% Dextrose in water), pH 6.32): 2390 µg/mL
- solubility at 24 h ([3]; saline or isotonic, Saline (0.9% NaCl), pH 6.67): 2080 µg/mL
- Changes in gene expression, jejunum (Nrf2 target genes; Study 1, DMF IV 17.5 mg/kg, 2 hours): No significant changes in gene expression
- Changes in transcript levels, kidney (Nrf2 target genes; Study 2, DMF IV 30 mg/kg, 2 hours): No significant changes
- Genes significantly increased, brain (Nrf2 target genes; [4]): significant increase was observed in brain Hmox1, Osgin1, and Gclc levels
- Genes significantly increased, kidney and jejunum (Nrf2 target genes; [4]): Significant increases were also observed in Akr1b8, Nqo1, and Osgin1 levels
- Other transcripts in tissues analyzed (Nrf2 target genes; Study 3, DMF IV 30 mg/kg once daily x5, 2 hours post-last dose): generally unaffected

Source: patent publication US20180289655A1, “Methods and Compositions for the Intravenous Administration of Fumarates for the Treatment of Neurological Diseases” (Biogen MA Inc., priority 2015, published 2018)
